target: T1, Solute carrier family 22 member 12 (Homo sapiens, UniProt Q96S37); experiment: hURAT1 Inhibition Assay: Human embryonic kidney cells (HEK293) was incubated in DMEM tissue culture medium, at 37° C., under 5% CO2 and 95% air atmosphere. TransIT-293 transfection agent (MIRUS BIO, Cat. No. MIR2706) and model URAT1 were used to construct transfected HEK293 cells. Transfected HEK293/hURAT1 cells were used to the test for 14C-uric acid transport activity. HEK293/hURAT1 cells were seeded in a 96-well plate (BD, Cat. No. 356461) fully coating with poly-D-lysine at a density of 6×10^4 cells per well. Cells were incubated at 37° C. for at least 12 hrs in the calorstat, and then washed with pre-heated washing buffer (125 mM sodium gluconate, 10 mM HEPES pH=7.4) at an amount of 200 μL per well to wash out the culture medium. The uric acid [8-14C] (ARC, Cat. No. ARC0513-250UCI) containing or not containing the compound was added to 50 μL HBSS buffer which was free of chloric ion each well (HBSS buffer: 125 mM sodium gluconate, 4.8 mM potassium gluconate, 1.3 mM calcium gluconate, 1.2 mM potassium dihydrogen phosphate, 1.2 mM magnesium sulfate, 5.6 mM glucose, 25 mM HEPES pH=7.4) to make the specific concentration of the uric acid 1 μCi per well. The incubating solution was removed after 10 mins incubation, followed by adding 100 μL cold washing buffer, after washing with this buffer for 3 times, the buffer was completely removed from the well.
T1 sequence (Q96S37 whole entry): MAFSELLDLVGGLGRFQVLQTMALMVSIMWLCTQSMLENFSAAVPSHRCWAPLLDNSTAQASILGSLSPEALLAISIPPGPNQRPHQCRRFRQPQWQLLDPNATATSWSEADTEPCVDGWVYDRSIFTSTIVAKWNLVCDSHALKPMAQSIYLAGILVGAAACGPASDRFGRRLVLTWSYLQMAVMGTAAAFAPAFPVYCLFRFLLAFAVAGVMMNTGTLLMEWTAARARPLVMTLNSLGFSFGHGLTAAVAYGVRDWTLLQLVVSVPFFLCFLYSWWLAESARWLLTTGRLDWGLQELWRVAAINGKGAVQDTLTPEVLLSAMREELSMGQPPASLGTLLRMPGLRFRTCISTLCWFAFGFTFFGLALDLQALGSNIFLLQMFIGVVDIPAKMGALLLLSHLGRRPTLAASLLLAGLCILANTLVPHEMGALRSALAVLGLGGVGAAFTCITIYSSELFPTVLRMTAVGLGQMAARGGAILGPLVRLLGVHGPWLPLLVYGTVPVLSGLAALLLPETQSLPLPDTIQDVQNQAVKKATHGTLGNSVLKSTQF

Row | SMILES | IC50
1 | CC(C)(Sc1ccc2cncc(-c3ccc(C#N)c4ccccc34)c2c1)C(=O)O | 8 nM
2 | C[C@@H](CC(=O)O)c1cc2cncc(-c3ccc(C#N)cc3)c2s1 | 1860 nM
3 | C[C@H](CC(=O)O)c1cc2cncc(-c3ccc(C#N)c4ccccc34)c2s1 | 580 nM
4 | C[C@H](Oc1ccc2cncc(-c3ccc(C#N)cc3)c2c1)C(=O)O | 2690 nM
5 | C[C@H](CC(=O)O)c1cc2cncc(-c3ccc(C#N)cc3)c2s1 | 38 nM
6 | C[C@@H](CC(=O)O)c1cc2c(-c3ccc(C#N)c4ccccc34)cncc2s1 | 37 nM
7 | C[C@@H](CC(=O)O)c1cc2cncc(-c3ccc(C#N)c4ccccc34)c2s1 | 10 nM
8 | C[C@@H](Oc1ccc2cncc(-c3ccc(C#N)cc3)c2c1)C(=O)O | 5520 nM
9 | C[C@H](CC(=O)O)c1cc2c(-c3ccc(C#N)c4ccccc34)cncc2s1 | 11 nM

— ChEMBL document CHEMBL5725778, “Condensed ring derivative, and preparation method, intermediate, pharmaceutical composition and use thereof” (2018)
